Assay results reported in paper PMC4537469 (Protein & Cell, 2015).

Tests used:
[1] = biological target: T1, RXRα (Homo sapiens, UniProt P19793, R316E); assay: mammalian one-hybrid reporter in MCF-7 cells ([…]); assay type: cell-based
T1 construct: gene RXRA; Gal4-DBD-RXRα-LBD
T1 sequence (P19793 223-462 R316E limits assumed): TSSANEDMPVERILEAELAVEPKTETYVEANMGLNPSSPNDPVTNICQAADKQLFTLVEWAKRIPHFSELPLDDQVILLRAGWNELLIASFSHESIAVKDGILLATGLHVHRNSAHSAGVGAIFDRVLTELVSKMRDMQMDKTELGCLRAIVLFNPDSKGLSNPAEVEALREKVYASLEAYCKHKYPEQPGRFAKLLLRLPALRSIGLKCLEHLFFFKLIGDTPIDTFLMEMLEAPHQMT

[2] = biological target: T2, RXRα (Homo sapiens, UniProt P19793, W305A); assay: SPR (BIAcore T200); assay type: binding
T2 construct: gene RXRA; RXRα-LBD
T2 sequence (P19793 223-462 W305A): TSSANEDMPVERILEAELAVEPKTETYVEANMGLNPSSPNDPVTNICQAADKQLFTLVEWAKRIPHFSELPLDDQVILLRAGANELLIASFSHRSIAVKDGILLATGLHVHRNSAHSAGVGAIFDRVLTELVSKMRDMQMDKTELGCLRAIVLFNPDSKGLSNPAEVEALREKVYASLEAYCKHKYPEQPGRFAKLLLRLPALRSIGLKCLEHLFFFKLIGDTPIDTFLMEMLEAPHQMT

[3] = biological target: T3, RXRα (Homo sapiens, UniProt P19793); assay: SPR (BIAcore T200); also [3H]9-cis-RA competition (IC50 […]), fluorescence binding, TR-FRET coactivator assay (IC50 […])
T3 construct: gene RXRA; His-tagged human RXRα-LBD (223–462)
T3 sequence (P19793 223-462): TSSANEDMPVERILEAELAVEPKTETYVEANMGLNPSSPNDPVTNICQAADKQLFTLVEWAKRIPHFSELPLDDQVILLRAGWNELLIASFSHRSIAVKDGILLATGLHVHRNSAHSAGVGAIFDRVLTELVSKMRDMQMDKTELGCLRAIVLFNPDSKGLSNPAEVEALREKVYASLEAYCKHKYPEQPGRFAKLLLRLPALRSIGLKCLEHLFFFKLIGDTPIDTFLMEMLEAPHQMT

[4] = biological target: T1, RXRα; assay: mammalian one-hybrid reporter in MCF-7 cells, antagonism of CD3254 (N-6 at […]); assay type: cell-based
[5] = biological target: the molecule itself; assay: native gel or EMSA; RXRα-LBD protein (2 mg/mL) incubated with DMSO, 10 μmol/L 9-cis-RA, 25 or 50 μmol/L N-6 for 3 h; 8% nondenaturing PAGE, Coomassie staining

Cc1cc2c(cc1-c1cc(/C=C/C(=O)O)ccc1O)C(C)(C)CCC2(C)C [CD3254]
mammalian one-hybrid reporter in MCF-7 cells (10^-7 mol/L) [1]: CD3254 was able to stimulate the transactivation of the mutant

C/C(=N/O)c1sc(-n2nc(-c3ccccc3)cc2-c2ccccc2)nc1C [N-6, (NZ)-N-[1-[2-(3,5-diphenylpyrazol-1-yl)-4-methyl-1,3-thiazol-5-yl]ethylidene]droxylamine]
Kd [2]: 1000 µM | Kd [3]: 15.7 µM | mammalian one-hybrid reporter in MCF-7 cells, antagonism of CD3254 (N-6 at 10 μm) [4]: CD3254-induced transactivation of RXRα-LBD/R316E was potently inhibited by N-6

B1: His-tagged human RXRα-LBD (223–462) (domain or fragment, UniProt P19793 223-462, looked up)
chain: TSSANEDMPVERILEAELAVEPKTETYVEANMGLNPSSPNDPVTNICQAADKQLFTLVEWAKRIPHFSELPLDDQVILLRAGWNELLIASFSHRSIAVKDGILLATGLHVHRNSAHSAGVGAIFDRVLTELVSKMRDMQMDKTELGCLRAIVLFNPDSKGLSNPAEVEALREKVYASLEAYCKHKYPEQPGRFAKLLLRLPALRSIGLKCLEHLFFFKLIGDTPIDTFLMEMLEAPHQMT
stoichiometry N [5]: 2
